Reference: patent US5578573A, “Viral integrase inhibiting peptides” (priority 1995, dated 1996)
Residues, ends and D or L forms follow the SMILES beside them.

Target: T1, HIV integrase (Human immunodeficiency virus type 1 group M subtype B, UniProt P04585)
T1 construct: The HIV integrase used in these assays was expressed in E. coli; made in house; host or cells: E. coli
Experiment: biochemical
Assay type: biochemical
Details: not given
Description: HIV integrase activity was assayed by site-specific cleavage and integration of a 28 base pair synthetic oligonucleotide substrate representing HIV-1 U5 essentially as described by Vink et al., Nucl. Acids Res. 21:1419-1425 (1993), which is incorporated herein by reference. The HIV integrase used in these assays was expressed in E. coli and purified to near homogeneity.
Briefly, 0.2 pmol 5'-^32 P-oligonucleotide substrate and 2 μM HIV integrase were incubated at 37° C. for 1 hr in 10 μl assay buffer (10 mM MOPS, pH 7.2, 50 mM NaCl, 3 mM MnCl2, 0.05 mM EDTA, 0.1 mM β-mercaptoethanol, 4% glycerol). Control integrase activity was determined in the absence of any peptide. The activity of a peptide to be tested was examined by adding the peptide to the appropriate concentration in a 2 μl volume. Reactions were stopped by addition of 10 μl formamide loading dye (95% formamide, 20 mM EDTA, 0.05% bromophenol blue, 0.05% xylene cyanol) and incubation at 80° C. for 3 min. A 5 μl aliquot of the sample was separated by electrophoresis on a 12% denaturing polyacrylamide gel. Migration was detected by autoradiography and integrase activity was quantified by densitometry. Inhibition of integrase activity by a peptide corresponded with the disappearance of the cleavage and integration products.

Compound	IC50
NCCCC[C@H](NC(=O)[C@H](CS)NC(=O)[C@@H](N)Cc1c[nH]cn1)C(=O)N[C@@H](Cc1ccccc1)C(=O)N[C@@H](Cc1c[nH]c2ccccc12)C(=O)N[C@@H](Cc1ccccc1)C(N)=O [compound 15] (H-HCKFWF-NH2)	5 µM
CC[C@H](C)[C@H](NC(=O)[C@H](Cc1c[nH]c2ccccc12)NC(=O)[C@H](Cc1ccccc1)NC(=O)[C@H](CCCCN)NC(=O)[C@H](CS)NC(=O)[C@@H](N)Cc1c[nH]cn1)C(N)=O [compound 11] (H-HCKFWI-NH2)	4 µM
C[C@H](N)C(=O)N[C@@H](CS)C(=O)N[C@@H](CCCCN)C(=O)N[C@@H](Cc1ccccc1)C(=O)N[C@@H](Cc1c[nH]c2ccccc12)C(=O)N[C@@H](Cc1c[nH]c2ccccc12)C(N)=O [compound 22] (H-ACKFWW-NH2)	51 µM
C[C@H](NC(=O)[C@H](CS)NC(=O)[C@@H](N)Cc1c[nH]cn1)C(=O)N[C@@H](Cc1ccccc1)C(=O)N[C@@H](Cc1c[nH]c2ccccc12)C(=O)N[C@@H](Cc1c[nH]c2ccccc12)C(N)=O [compound 24] (H-HCAFWW-NH2)	49 µM
C[C@H](NC(=O)[C@@H](N)Cc1c[nH]cn1)C(=O)N[C@@H](CCCCN)C(=O)N[C@@H](Cc1ccccc1)C(=O)N[C@@H](Cc1c[nH]c2ccccc12)C(=O)N[C@@H](Cc1c[nH]c2ccccc12)C(N)=O [compound 23] (H-HAKFWW-NH2)	30 µM
C[C@H](NC(=O)[C@H](Cc1c[nH]c2ccccc12)NC(=O)[C@H](Cc1ccccc1)NC(=O)[C@H](CCCCN)NC(=O)[C@H](CS)NC(=O)[C@@H](N)Cc1c[nH]cn1)C(N)=O [compound 27] (H-HCKFWA-NH2)	210 µM
C[C@H](NC(=O)[C@H](CCCCN)NC(=O)[C@H](CS)NC(=O)[C@@H](N)Cc1c[nH]cn1)C(=O)N[C@@H](Cc1c[nH]c2ccccc12)C(=O)N[C@@H](Cc1c[nH]c2ccccc12)C(N)=O [compound 25] (H-HCKAWW-NH2)	8 µM
C[C@H](NC(=O)[C@H](Cc1ccccc1)NC(=O)[C@H](CCCCN)NC(=O)[C@H](CS)NC(=O)[C@@H](N)Cc1c[nH]cn1)C(=O)N[C@@H](Cc1c[nH]c2ccccc12)C(N)=O [compound 26] (H-HCKFAW-NH2)	150 µM
N=C(N)NCCC[C@H](NC(=O)[C@H](Cc1c[nH]c2ccccc12)NC(=O)[C@H](Cc1ccccc1)NC(=O)[C@H](CCCCN)NC(=O)[C@H](CS)NC(=O)[C@@H](N)Cc1c[nH]cn1)C(N)=O [compound 3] (H-HCKFWR-NH2)	8 µM
NCCCC[C@H](NC(=O)[C@H](CS)NC(=O)[C@@H](N)Cc1cnc[nH]1)C(=O)N[C@@H](Cc1ccccc1)C(=O)N[C@@H](Cc1c[nH]c2ccccc12)C(=O)N[C@@H](Cc1c[nH]c2ccccc12)C(N)=O [compound 19] (H-HCKFWW-NH2)	2 µM

Same assay, conditions: 50 μM peptide; results normalized to His-Cys-Lys-Phe-Trp-Trp-NH2 (SEQ ID NO: 19)

Compound	% Inhibition of HIV integrase activity
NCCCC[C@H](NC(=O)[C@H](CS)NC(=O)[C@@H](N)Cc1c[nH]cn1)C(=O)N[C@@H](Cc1ccccc1)C(=O)N[C@@H](Cc1c[nH]c2ccccc12)C(=O)N[C@@H](Cc1ccccc1)C(N)=O [compound 15] (H-HCKFWF-NH2)	95%
NCCCC[C@H](NC(=O)[C@H](CS)NC(=O)[C@@H](N)Cc1c[nH]cn1)C(=O)N[C@@H](Cc1ccccc1)C(=O)N[C@@H](Cc1c[nH]c2ccccc12)C(=O)N[C@@H](Cc1c[nH]cn1)C(N)=O [compound 10] (H-HCKFWH-NH2)	72%
C[C@H](NC(=O)[C@H](Cc1c[nH]c2ccccc12)NC(=O)[C@H](Cc1ccccc1)NC(=O)[C@H](CCCCN)NC(=O)[C@H](CS)NC(=O)[C@@H](N)Cc1c[nH]cn1)C(N)=O [compound 2] (H-HCKFWA-NH2)	2%
CC[C@H](C)[C@H](NC(=O)[C@H](Cc1c[nH]c2ccccc12)NC(=O)[C@H](Cc1ccccc1)NC(=O)[C@H](CCCCN)NC(=O)[C@H](CS)NC(=O)[C@@H](N)Cc1c[nH]cn1)C(N)=O [compound 11] (H-HCKFWI-NH2)	96%
CSCC[C@H](NC(=O)[C@H](Cc1c[nH]c2ccccc12)NC(=O)[C@H](Cc1ccccc1)NC(=O)[C@H](CCCCN)NC(=O)[C@H](CS)NC(=O)[C@@H](N)Cc1c[nH]cn1)C(N)=O [compound 14] (H-HCKFWM-NH2)	42%
CC(C)[C@H](NC(=O)[C@H](Cc1c[nH]c2ccccc12)NC(=O)[C@H](Cc1ccccc1)NC(=O)[C@H](CCCCN)NC(=O)[C@H](CS)NC(=O)[C@@H](N)Cc1c[nH]cn1)C(N)=O [compound 21] (H-HCKFWV-NH2)	85%
C[C@@H](O)[C@H](NC(=O)[C@H](Cc1c[nH]c2ccccc12)NC(=O)[C@H](Cc1ccccc1)NC(=O)[C@H](CCCCN)NC(=O)[C@H](CS)NC(=O)[C@@H](N)Cc1c[nH]cn1)C(N)=O [compound 18] (H-HCKFWT-NH2)	8%
NCCCC[C@H](NC(=O)[C@H](CS)NC(=O)[C@@H](N)Cc1c[nH]cn1)C(=O)N[C@@H](Cc1ccccc1)C(=O)N[C@@H](Cc1c[nH]c2ccccc12)C(=O)N[C@@H](CCC(=O)O)C(N)=O [compound 7] (H-HCKFWE-NH2)	28%
NCCCC[C@H](NC(=O)[C@H](CS)NC(=O)[C@@H](N)Cc1c[nH]cn1)C(=O)N[C@@H](Cc1ccccc1)C(=O)N[C@@H](Cc1c[nH]c2ccccc12)C(=O)N[C@@H](CS)C(N)=O [compound 6] (H-HCKFWC-NH2)	30%
NCCCC[C@H](NC(=O)[C@H](CS)NC(=O)[C@@H](N)Cc1c[nH]cn1)C(=O)N[C@@H](Cc1ccccc1)C(=O)N[C@@H](Cc1c[nH]c2ccccc12)C(=O)N[C@@H](Cc1ccc(O)cc1)C(N)=O [compound 20] (H-HCKFWY-NH2)	75%
NCCCC[C@H](NC(=O)[C@H](CS)NC(=O)[C@@H](N)Cc1c[nH]cn1)C(=O)N[C@@H](Cc1ccccc1)C(=O)N[C@@H](Cc1c[nH]c2ccccc12)C(=O)NCC(N)=O [compound 9] (H-HCKFWG-NH2)	82%
NCCCC[C@H](NC(=O)[C@H](CS)NC(=O)[C@@H](N)Cc1c[nH]cn1)C(=O)N[C@@H](Cc1ccccc1)C(=O)N[C@@H](Cc1c[nH]c2ccccc12)C(=O)N1CCC[C@H]1C(N)=O [compound 16] (H-HCKFWP-NH2)	45%
NCCCC[C@H](NC(=O)[C@H](CS)NC(=O)[C@@H](N)Cc1c[nH]cn1)C(=O)N[C@@H](Cc1ccccc1)C(=O)N[C@@H](Cc1c[nH]c2ccccc12)C(=O)N[C@@H](CO)C(N)=O [compound 17] (H-HCKFWS-NH2)	40%
NCCCC[C@H](NC(=O)[C@H](CS)NC(=O)[C@@H](N)Cc1c[nH]cn1)C(=O)N[C@@H](Cc1ccccc1)C(=O)N[C@@H](Cc1c[nH]c2ccccc12)C(=O)N[C@@H](CCC(N)=O)C(N)=O [compound 8] (H-HCKFWQ-NH2)	8%
N=C(N)NCCC[C@H](NC(=O)[C@H](Cc1c[nH]c2ccccc12)NC(=O)[C@H](Cc1ccccc1)NC(=O)[C@H](CCCCN)NC(=O)[C@H](CS)NC(=O)[C@@H](N)Cc1c[nH]cn1)C(N)=O [compound 3] (H-HCKFWR-NH2)	88%
NCCCC[C@H](NC(=O)[C@H](CS)NC(=O)[C@@H](N)Cc1c[nH]cn1)C(=O)N[C@@H](Cc1ccccc1)C(=O)N[C@@H](Cc1c[nH]c2ccccc12)C(=O)N[C@@H](CC(=O)O)C(N)=O [compound 5] (H-HCKFWD-NH2)	18%
CC(C)C[C@H](NC(=O)[C@H](Cc1c[nH]c2ccccc12)NC(=O)[C@H](Cc1ccccc1)NC(=O)[C@H](CCCCN)NC(=O)[C@H](CS)NC(=O)[C@@H](N)Cc1c[nH]cn1)C(N)=O [compound 12] (H-HCKFWL-NH2)	8%
NCCCC[C@H](NC(=O)[C@H](CS)NC(=O)[C@@H](N)Cc1c[nH]cn1)C(=O)N[C@@H](Cc1ccccc1)C(=O)N[C@@H](Cc1c[nH]c2ccccc12)C(=O)N[C@@H](CC(N)=O)C(N)=O [compound 4] (H-HCKFWN-NH2)	30%
NCCCC[C@H](NC(=O)[C@H](Cc1c[nH]c2ccccc12)NC(=O)[C@H](Cc1ccccc1)NC(=O)[C@H](CCCCN)NC(=O)[C@H](CS)NC(=O)[C@@H](N)Cc1c[nH]cn1)C(N)=O [compound 13] (H-HCKFWK-NH2)	34%
NCCCC[C@H](NC(=O)[C@H](CS)NC(=O)[C@@H](N)Cc1c[nH]cn1)C(=O)N[C@@H](Cc1ccccc1)C(=O)N[C@@H](Cc1c[nH]c2ccccc12)C(=O)N[C@@H](Cc1c[nH]c2ccccc12)C(N)=O [compound 19] (H-HCKFWW-NH2)	100%
